IC50 data for 30 compounds are collected here from patent US20250179078A1, “INHIBITORS OF NLRP3” (PTC THERAPEUTICS, INC., priority 2022, published 2025).

The assay deals with T1, NLRP3 (Homo sapiens, UniProt Q96P20).
T1 construct: host or cells: THP-1 cells differentiated with PMA
T1 sequence (Q96P20 whole entry): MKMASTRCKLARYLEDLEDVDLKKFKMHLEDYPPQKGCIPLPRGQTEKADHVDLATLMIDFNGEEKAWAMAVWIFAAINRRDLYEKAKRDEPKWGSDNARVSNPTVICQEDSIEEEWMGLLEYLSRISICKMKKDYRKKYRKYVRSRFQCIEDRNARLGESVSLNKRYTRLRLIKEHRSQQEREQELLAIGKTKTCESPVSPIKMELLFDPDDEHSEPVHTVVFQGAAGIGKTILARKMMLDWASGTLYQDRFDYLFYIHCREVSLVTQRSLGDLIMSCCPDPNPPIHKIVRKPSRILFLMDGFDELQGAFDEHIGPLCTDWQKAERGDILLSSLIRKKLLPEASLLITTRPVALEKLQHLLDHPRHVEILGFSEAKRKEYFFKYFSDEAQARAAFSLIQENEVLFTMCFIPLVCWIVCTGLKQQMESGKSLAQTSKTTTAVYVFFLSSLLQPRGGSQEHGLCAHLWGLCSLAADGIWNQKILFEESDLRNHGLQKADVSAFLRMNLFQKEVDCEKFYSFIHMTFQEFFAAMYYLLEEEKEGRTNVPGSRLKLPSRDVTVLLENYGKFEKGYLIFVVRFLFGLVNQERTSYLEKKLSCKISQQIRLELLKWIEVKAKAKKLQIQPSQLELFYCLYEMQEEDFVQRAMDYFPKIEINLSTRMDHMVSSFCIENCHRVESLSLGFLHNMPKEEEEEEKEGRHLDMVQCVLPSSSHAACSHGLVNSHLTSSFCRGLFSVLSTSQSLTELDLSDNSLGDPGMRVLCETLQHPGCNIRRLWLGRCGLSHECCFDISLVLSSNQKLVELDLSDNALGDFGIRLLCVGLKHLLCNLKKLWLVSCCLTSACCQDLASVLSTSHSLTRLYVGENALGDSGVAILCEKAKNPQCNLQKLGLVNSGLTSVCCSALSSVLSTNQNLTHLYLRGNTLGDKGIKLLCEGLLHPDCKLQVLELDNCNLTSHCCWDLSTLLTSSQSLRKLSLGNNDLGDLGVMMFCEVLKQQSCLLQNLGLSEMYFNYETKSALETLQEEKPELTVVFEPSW
As to the kind of experiment: IL-1β Secretion Assay (NLRP3-dependent IL1β secretion in THP1 cells). Format: cell-based. The note with it: PMA-differentiated THP-1 cells; compounds incubated 20 h; 2.5 μM Nigericin 3 h; HTRF IL-1β readout; read-out: IC50 IL-1β Inhibition. The essentials:
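THP-1 cells differentiated with 100 ng/mL PMA for 24 h, then given compound (7-point 3-fold series, 1:200 from DMSO) for 20 h in RPMI+5% FBS. NLRP3 activated with 2.5 μM nigericin for 3 h; secreted IL-1β measured by HTRF; IC50 from logistic fit of % inhibition.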
By IC50 is commonly meant the midpoint of a concentration-inhibition curve. In the case of `Cc1ccc(-c2nnc(N[C@H]3C[C@@](C)(O)C3)n3cncc23)c(CC(F)(F)F)c1` [Compound 318, (1s,3s)-1-methyl-3-({1-[4-methyl-2-(2,2,2-trifluoroethyl)phenyl]imidazo[1,5-d][1,2,4]triazin-4-yl}amino)cyclobutan-1-ol], the IC50 lay in the range of 1 to 10 nM.
For `CC(Nc1nnc(-c2ccc(OC(F)F)cc2OC(F)(F)F)c2cccn12)c1cccc(O)c1` (stereo not drawn) [Compound 172, 3-[1-({1-[4-(difluoromethoxy)-2-(trifluoromethoxy)phenyl]pyrrolo[1,2-d][1,2,4]triazin-4-yl}amino)ethyl]phenol] the value was below 1 nM.
Consider `COc1ccc(-c2nnc(N[C@@H]3CCOC[C@H]3O)n3nc(C)cc23)c(CC(F)(F)F)c1` [Compound 384, (3S,4R)-4-({4-[4-methoxy-2-(2,2,2-trifluoroethyl)phenyl]-2-methylpyrazolo[1,5-d][1,2,4]triazin-7-yl}amino)oxan-3-ol], for which the IC50 fell in the range of 1 to 10 nM.
For `COc1ccc(-c2nnc(N[C@@H]3CCCN(CCO)C3)n3cncc23)c(C(F)(F)F)c1` [Compound 213, 2-[(3R)-3-({1-[4-methoxy-2-(trifluoromethyl)phenyl]imidazo[1,5-d][1,2,4]triazin-4-yl}amino)piperidin-1-yl]ethan-1-ol], the IC50 is 1 to 10 nM.
For `COc1ccc(-c2nnc(N[C@@H]3CCCN(CCO)C3)n3cccc23)c(OC2CC2)c1` [Compound 143, 2-[(3R)-3-({1-[2-(cyclopropyloxy)-4-methoxyphenyl]pyrrolo[1,2-d][1,2,4]triazin-4-yl}amino)piperidin-1-yl]ethan-1-ol], the IC50 lay within 10 to 100 nM.
For `COc1ccc(-c2nnc(NC3CCCN(C)C3=O)n3cncc23)c(CC(F)(F)F)c1` (stereo not drawn) [Compound 330, 3-({1-[4-methoxy-2-(2,2,2-trifluoroethyl)phenyl]imidazo[1,5-d][1,2,4]triazin-4-yl}amino)-1-methylpiperidin-2-one] the value was 10 to 100 nM.
For `CN1CCC[C@@H](Nc2nnc(-c3ccc(C(F)(F)F)cc3CC(F)(F)F)c3cccn23)C1` [Compound 40, N-[(3R)-1-methylpiperidin-3-yl]-1-[2-(2,2,2-trifluoroethyl)-4-(trifluoromethyl)phenyl]pyrrolo[1,2-d][1,2,4]triazin-4-amine] the value was below 1 nM; for `O[C@@H]1CCCCC[C@H]1Nc1nnc(-c2ccc(C(F)(F)F)cc2CC(F)(F)F)c2cccn12.O[C@H]1CCCCC[C@@H]1Nc1nnc(-c2ccc(C(F)(F)F)cc2CC(F)(F)F)c2cccn12` [Compound 127, (1R,2R)-2-({1-[2-(2,2,2-trifluoroethyl)-4-(trifluoromethyl)phenyl]pyrrolo[1,2-d][1,2,4]triazin-4-yl}amino)cycloheptan-1-ol AND (1S,2S)-2-({1-[2-(2,2,2-trifluoroethyl)-4-(trifluoromethyl)phenyl]pyrrolo[1,2-d][1,2,4]triazin-4-yl}amino)cycloheptan-1-ol], 10 to 100 nM; for `CCN1CCC[C@@H](Nc2nnc(-c3ccc(C#N)cc3OC(F)F)c3cc(C)nn23)C1` [Compound 378, 3-(difluoromethoxy)-4-(7-{[(3R)-1-ethylpiperidin-3-yl]amino}-2-methylpyrazolo[1,5-d][1,2,4]triazin-4-yl)benzonitrile], 1 to 10 nM.
For the compound `COc1ccc(-c2nnc(N[C@@H]3C[C@@H](F)CN(C)C3)n3cncc23)c(OC(F)(F)F)c1` [Compound 210, N-[(3R,5R)-5-fluoro-1-methylpiperidin-3-yl]-1-[4-methoxy-2-(trifluoromethoxy)phenyl]imidazo[1,5-d][1,2,4]triazin-4-amine], the 50% inhibitory concentration (IC50) was in the range of 1 to 10 nM.
For the compound `CCN1CCC[C@@H](Nc2nnc(-c3ccc(OC)cc3C(F)(F)F)c3cncn23)C1` [Compound 212, N-[(3R)-1-ethylpiperidin-3-yl]-1-[4-methoxy-2-(trifluoromethyl)phenyl]imidazo[1,5-d][1,2,4]triazin-4-amine], the IC50 is below 1 nM.
For `Cc1cc2c(-c3ccc(C4CC4)cc3C(F)F)nnc(N[C@@H]3CCCN(C)C3)n2n1` [Compound 363, 4-[4-cyclopropyl-2-(difluoromethyl)phenyl]-2-methyl-N-[(3R)-1-methylpiperidin-3-yl]pyrazolo[1,5-d][1,2,4]triazin-7-amine] the value was 1 to 10 nM; for `COc1ccc(-c2nnc(NC(C)c3cccnc3)n3cncc23)c(OC(F)(F)F)c1` (single isomer, unassigned) [Compound 309], 10 to 100 nM.
In the case of `OCCN1CCC[C@@H](Nc2nnc(-c3ccc(OC(F)F)cc3OC(F)(F)F)c3cccn23)C1` [Compound 86, 2-[(3R)-3-({1-[4-(difluoromethoxy)-2-(trifluoromethoxy)phenyl]pyrrolo[1,2-d][1,2,4]triazin-4-yl}amino)piperidin-1-yl]ethan-1-ol], the IC50 is below 1 nM.
For `O=C1NCCC1Nc1nnc(-c2ccc(C(F)(F)F)cc2OC(F)(F)F)c2ccnn12` (stereo not drawn) [Compound 393, 3-({4-[2-(trifluoromethoxy)-4-(trifluoromethyl)phenyl]pyrazolo[1,5-d][1,2,4]triazin-7-yl}amino)pyrrolidin-2-one] the value was 10 to 100 nM; for `COc1cccc(C(C)Nc2nnc(-c3ccc(OC)cc3C(F)(F)F)c3c(F)ccn23)c1` (stereo not drawn) [Compound 148, 8-fluoro-N-[1-(3-methoxyphenyl)ethyl]-1-[4-methoxy-2-(trifluoromethyl)phenyl]pyrrolo[1,2-d][1,2,4]triazin-4-amine], 100 to 300 nM; for `CCN1C[C@H](F)C[C@@H](Nc2nnc(-c3ccc(OC)cc3OC(F)(F)F)c3c(F)ccn23)C1` [Compound 53, N-[(3R,5R)-1-ethyl-5-fluoropiperidin-3-yl]-8-fluoro-1-[4-methoxy-2-(trifluoromethoxy)phenyl]pyrrolo[1,2-d][1,2,4]triazin-4-amine], 1 to 10 nM.
Next, `Cc1cc(C(F)(F)F)cc(OC(F)F)c1-c1nnc(N[C@@H]2CCCN(C)C2)n2cccc12` [Compound 49, 1-[2-(difluoromethoxy)-6-methyl-4-(trifluoromethyl)phenyl]-N-[(3R)-1-methylpiperidin-3-yl]pyrrolo[1,2-d][1,2,4]triazin-4-amine]: 10 to 100 nM; `Cc1ccc(-c2nnc(N[C@H]3C[C@@](C)(O)C3)n3cncc23)c(OC(F)(F)F)c1` [Compound 332, (1s,3s)-1-methyl-3-({1-[4-methyl-2-(trifluoromethoxy)phenyl]imidazo[1,5-d][1,2,4]triazin-4-yl}amino)cyclobutan-1-ol]: 10 to 100 nM.
For `COc1ccc(-c2nnc(NC3CCNC3=O)n3cncc23)c(OC(F)(F)F)c1` (stereo not drawn) [Compound 284, 3-({1-[4-methoxy-2-(trifluoromethoxy)phenyl]imidazo[1,5-d][1,2,4]triazin-4-yl}amino)pyrrolidin-2-one] the value was 10 to 100 nM; for `Cc1cc2c(-c3ccc(Cl)cc3OC(F)F)nnc(N[C@@H]3CCCN(C)C3)n2n1` [Compound 358, 4-[4-chloro-2-(difluoromethoxy)phenyl]-2-methyl-N-[(3R)-1-methylpiperidin-3-yl]pyrazolo[1,5-d][1,2,4]triazin-7-amine], below 1 nM; for `Cc1ccc(-c2nnc(N[C@@H]3CCCN(CCO)C3)n3cncc23)c(OC(F)(F)F)c1` [Compound 355, 2-[(3R)-3-({1-[4-methyl-2-(trifluoromethoxy)phenyl]imidazo[1,5-d][1,2,4]triazin-4-yl}amino)piperidin-1-yl]ethan-1-ol], 10 to 100 nM.
Consider `COc1ccc(-c2nnc(N[C@@H]3CCCC[C@H]3O)n3cncc23)c(C(F)(F)C(F)(F)F)c1` [Compound 316, (1R,2R)-2-({1-[4-methoxy-2-(pentafluoroethyl)phenyl]imidazo[1,5-d][1,2,4]triazin-4-yl}amino)cyclohexan-1-ol], for which the IC50 is 10 to 100 nM.
`CCN1CCC[C@@H](Nc2nnc(-c3ccc(OC)cc3Cl)c3cc(C)nn23)C1` [Compound 374, 4-(2-chloro-4-methoxyphenyl)-N-[(3R)-1-ethylpiperidin-3-yl]-2-methylpyrazolo[1,5-d][1,2,4]triazin-7-amine]: the 50% inhibitory concentration (IC50) is 1 to 10 nM.
In the case of `CCN1CCC[C@@H](Nc2nnc(-c3ccc(C(F)(F)F)cc3CC(F)(F)F)c3cncn23)C1` [Compound 261, N-[(3R)-1-ethylpiperidin-3-yl]-1-[2-(2,2,2-trifluoroethyl)-4-(trifluoromethyl)phenyl]imidazo[1,5-d][1,2,4]triazin-4-amine], the IC50 was below 1 nM.
For `COc1ccc(-c2nnc(N[C@@H]3CCCN(C)C3)n3cccc23)c(C)c1` [Compound 26, 1-(4-methoxy-2-methylphenyl)-N-[(3R)-1-methylpiperidin-3-yl]pyrrolo[1,2-d][1,2,4]triazin-4-amine] the value was 10 to 100 nM.
For the compound `COc1ccc(-c2nnc(N[C@H](C)c3cccc(O)c3)n3cncc23)c(OC(F)(F)F)c1` (single isomer, unassigned) [Compound 248], the IC50 is at least 300 nM.
In the case of `COc1ccc(-c2nnc(N[C@@H]3CCC[C@H](O)C3)n3cccc23)c(OC(F)(F)F)c1` [Compound 62, (1S,3R)-3-({1-[4-methoxy-2-(trifluoromethoxy)phenyl]pyrrolo[1,2-d][1,2,4]triazin-4-yl}amino)cyclohexan-1-ol], the IC50 was 10 to 100 nM.
For `CCN1CCC[C@@H](Nc2nnc(-c3ccc(SC)cc3OC(F)(F)F)c3cc(C)nn23)C1` [Compound 366, N-[(3R)-1-ethylpiperidin-3-yl]-2-methyl-4-[4-(methylsulfanyl)-2-(trifluoromethoxy)phenyl]pyrazolo[1,5-d][1,2,4]triazin-7-amine] the value was 1 to 10 nM; for `CN1CCC[C@@H](Nc2nnc(-c3ccc(C(F)(F)F)cc3C(F)(F)F)c3c(F)ccn23)C1` [Compound 28, 1-[2,4-bis(trifluoromethyl)phenyl]-8-fluoro-N-[(3R)-1-methylpiperidin-3-yl]pyrrolo[1,2-d][1,2,4]triazin-4-amine], 1 to 10 nM.
